Patent US20080214844A1, “Icaritin and desmethylicaritin as anti-cancer agents” (priority 2007, published 2008)
pIC50: −log10 of the molar value. One block for each compound: values may come before it.

Key:
[1] = test system: hepatoma or leukemia cell lines; conditions: other studies; cited from earlier work
[2] = test system: highly metastatic human lung cancer cells (PG); conditions: PG cells in vitro; cited from earlier work
[3] = test system: LoVo; test: MTT cell viability assay, LoVo; format: cell-based, human; conditions: Colon, 3 days culture
Description: (§1) 26 cancer cell lines were grown in normal growth medium in the presence of different concentrations Icaritin or Desmethylicaritin. After culture for 3 days, the cell viability was then measured by an MTT assay. […] Some EC50s were lower than 10 uM for these two compounds. […] Whereas, normal human mammary gland epithelial cells (MCF10A) were not sensitive to Icaritin and Desmethylicaritin. These cells grew well when treated with these two compounds at a concentration of 50 uM.

[4] = test system: BT-549; test: MTT cell viability assay, BT-549; format: cell-based, human; conditions: BT-549, Breast, 3 days culture
Description: as §1

[5] = test system: Widr; test: MTT cell viability assay, Widr; format: cell-based, human; conditions: Colon, 3 days culture
Description: as §1

[6] = test system: G-361; test: MTT cell viability assay, G-361; format: cell-based, human; conditions: G-361, Skin, 3 days culture
Description: as §1

[7] = test system: SK-MEL-5; test: MTT cell viability assay, SK-MEL-5; format: cell-based, human; conditions: SK-MEL-5, Skin, 3 days culture
Description: as §1

[8] = test system: MDA-MB-435; test: MTT cell viability assay, MDA-MB-435; format: cell-based, human; conditions: MDA-MB-435, Breast, 3 days culture
Description: as §1

[9] = test system: CCL-225; test: MTT cell viability assay, CCL-225; format: cell-based, human; conditions: CCL-225, Colon, 3 days culture
Description: as §1

[10] = test system: ACHN; test: MTT cell viability assay, ACHN; format: cell-based, human; conditions: Kidney, 3 days culture
Description: as §1

[11] = test system: Mid PaCa-2; test: MTT cell viability assay, Mid PaCa-2; format: cell-based, human; conditions: Mid PaCa-2, Pancreas, 3 days culture
Description: as §1

[12] = test system: CCL-247; test: MTT cell viability assay, CCL-247; format: cell-based, human; conditions: CCL-247, Colon, 3 days culture
Description: as §1

[13] = test system: U-251; test: MTT cell viability assay, U-251; format: cell-based, human; conditions: U-251, Glioblastoma, 3 days culture
Description: as §1

[14] = test system: FAS protein levels in LNCaP cells; test: Western blot analysis for FAS protein levels; format: cell-based, human
[15] = test system: Raji; test: MTT cell viability assay, Raji; format: cell-based, human; conditions: Lymphoma, 3 days culture
Description: as §1

[16] = test system: estrogen receptor; conditions: mediated by the estrogen receptor; cited from earlier work
[17] = test system: IGROV1; test: MTT cell viability assay, IGROV1; format: cell-based, human; conditions: IGROV1, Ovary, 3 days culture
Description: as §1

[18] = test system: AU-565; test: MTT cell viability assay, AU-565; format: cell-based, human; conditions: AU-565, Breast, 3 days culture
Description: as §1

[19] = test system: PC3; test: MTT cell viability assay, PC3; format: cell-based, human; conditions: PC3, Prostate, 3 days culture
Description: as §1

[20] = test system: MCF-10a; test: MTT cell viability assay, MCF-10a normal breast epithelial cells; format: cell-based, human
Description: as §1

[21] = test system: HCT-116; test: MTT cell viability assay, HCT-116; format: cell-based, human; conditions: HCT-116, Colon, 3 days culture
Description: as §1

[22] = test system: LNCAP; test: MTT cell viability assay, LNCAP; format: cell-based, human; conditions: Prostate, 3 days culture
Description: as §1

[23] = test system: 786-O; test: MTT cell viability assay, 786-O; format: cell-based, human; conditions: Kidney, 3 days culture
Description: as §1

[24] = test system: MCF-7; test: MTT cell viability assay, MCF-7; format: cell-based, human; conditions: MCF-7, Breast, 3 days culture
Description: as §1

[25] = test system: SN12C; test: MTT cell viability assay, SN12C; format: cell-based, human; conditions: Kidney, 3 days culture
Description: as §1

[26] = test system: Caki-1; test: MTT cell viability assay, Caki-1; format: cell-based, human; conditions: Caki-1, Kidney, 3 days culture
Description: as §1

[27] = test system: MDA-MB-231; test: MTT cell viability assay, MDA-MB-231; format: cell-based, human; conditions: MDA-MB-231, Breast, 3 days culture
Description: as §1

[28] = test system: Jurkat T cell; test: MTT cell viability assay, Jurkat T cell; format: cell-based, human; conditions: Leukemia, 3 days culture
Description: as §1

[29] = test system: A549; test: MTT cell viability assay, A549; format: cell-based, human; conditions: A549, Lung, 3 days culture
Description: as §1

[30] = test system: D145; test: MTT cell viability assay, D145; format: cell-based, human; conditions: D145, Prostate, 3 days culture
Description: as §1

[31] = test system: LNCaP cells and MDA-MB-231 cells; test: Synthesis of lipid classes in cancer cells; format: cell-based, human
Description: Icaritin and Desmethylicaritin decrease Lipogenesis in Prostate and Breast Cancer cells via inhibition of fatty acid synthase (FAS) Activity. Protein extracts from LNCaP cells, which had been ^14C-labeled with malonyl-CoA, were pretreated with these two compounds. A concentration of 0.5 μM Icaritin or Desmethylicaritin reduced the in vitro enzymatic FAS activity to less than 50%. […] Consistent with their FAS inhibitory effect, inhibition of lipogenesis by Icaritin and Desmethylicaritin affected the synthesis of phospholipids (including phosphatidylcholine, phosphatidylethanolamine, phosphatidylinositol, phosphatidylserine, and sphingomyelin) and of triglycerides in LNCaP cells and MDA-MB-231 cells. […] Cholesterol synthesis, however, accounts for less than 10% of the total lipogenic activity in LNCaP and MDA-MB-231 cancer cells, whereas ˜75 and 15% of the lipogenic activity in these cells represents phospholipid and triglyceride synthesis, respectively.

[32] = test system: SKOV3; test: MTT cell viability assay, SKOV3; format: cell-based, human; conditions: SKOV3, Ovary, 3 days culture
Description: as §1

[33] = test system: HT29; test: MTT cell viability assay, HT29; format: cell-based, human; conditions: HT29, Colon, 3 days culture
Description: as §1

[34] = test system: NCI-H23; test: MTT cell viability assay, NCI-H23; format: cell-based, human; conditions: NCI-H23, Lung, 3 days culture
Description: as §1

SMILES: COc1ccc(-c2oc3c(CC=C(C)C)c(O[C@@H]4O[C@H](CO)[C@@H](O)[C@H](O)[C@H]4O)cc(O)c3c(=O)c2O[C@@H]2O[C@@H](C)[C@H](O)[C@@H](O)[C@H]2O)cc1 [ICA, Icariin]
inhibition of hepatoma or leukemia cell lines [1]: no inhibition
PG cells adhesive ratio to laminin substrate [2]: decreased
ability of invasion or migration [2]: decreased
cAMP/cGMP ratio [2]: increased
distribution of PG cells cycle [2]: reduce S phase
expression of membrane HLA-ABC antigen [2]: increase
level of cAMP in PG cells [2]: increased
level of cGMP [2]: reduced
membrane fluidity of PG [2]: enhance

pIC50 [3]: 4.98
pIC50 [4]: 5.02
pIC50 [7]: 4.97
pIC50 [8]: 4.90
pIC50 [10]: 5.01
pIC50 [13]: 5.14
pIC50 [15]: 5.28
pIC50 [19]: 4.97
pIC50 [21]: 5.16
pIC50 [22]: 5.21
pIC50 [23]: 4.96
pIC50 [24]: 4.61
pIC50 [27]: 5.19
pIC50 [28]: 5.31
pIC50 [29]: 4.97
pIC50 [32]: 4.98
pIC50 [33]: 4.77
pIC50 [34]: 5.19
SMILES: CC(C)=CCc1c(O)cc(O)c2c(=O)c(O)c(-c3ccc(O)cc3)oc12 [Desmethylicaritin]
pIC50 [5]: 4.95
pIC50 [6]: 5.13
pIC50 [9]: 5.05
pIC50 [11]: 5.07
pIC50 [12]: 4.75
FAS protein levels (Western blot) [14]: did not influence
estrogenic effect [16]: week phytoestrogens
pIC50 [17]: 4.95
pIC50 [18]: 5.05
pIC50 ([20]; MCF-10a, Normal breast epithelial cells, 3 days culture, MTT): < 4.30
sensitivity of normal human mammary gland epithelial cells (MCF10A) ([20]; cells grew well at 50 uM): not sensitive
pIC50 [25]: 4.80
pIC50 [26]: 5.12
pIC50 [30]: 5.01
synthesis of cholesterol ([31]; LNCaP and MDA-MB-231 cells): decreased
synthesis of phospholipids and of triglycerides ([31]; LNCaP cells and MDA-MB-231 cells): affected
